Activity calls are given as the source filed them. The calls are words filed in the database; no cut-off is given here.
Assays:
Mus musculus [1] = assay: In vivo inhibition of topoisomerase 1 in mouse xenografted with human Capan1 cells assessed as increase in phosphorylated KAP1 expression at 36 mg/kg, iv for every 2 days measured at 2 hrs post last dose by Western blot analysis; format: functional, organism-based
[2] = Prodrug release in tumor of mouse xenografted with human Capan1 cells assessed as increase in 7-ethyl-10-hydroxycamptothecin level at 36 mg/kg, iv after 24 hrs by LC-MS/MS analysis; format: ADME, organism-based, Neoplasm; settings: in vivo
[3] = Drug uptake in human A549 cells assessed as blue fluorescence at 5 uM after 12 hrs by confocal laser scanning microscopic analysis; format: ADME, cell-based; settings: a549, 12 h
CAPAN-1 = assay: Antiproliferative activity against human Capan1 cells assessed as reduction in cell viability after 72 hrs by SRB assay; format: functional, cell-based; settings: CAPAN-1, 72 h
A549 [4] = assay: Antiproliferative activity against human A549 cells assessed as reduction in cell viability after 72 hrs by SRB assay; format: functional, cell-based; settings: A549, 72 h
[5] = Prodrug release in tumor of mouse xenografted with human HCT116 cells assessed as increase in 7-ethyl-10-hydroxycamptothecin level at 15 mg/kg, iv administered as single dose by LC-MS/MS analysis; format: ADME, organism-based, Neoplasm; settings: in vivo
A549 [6] = assay: Downregulation of TOP1 expression in human A549 cells after 24 hrs by Western blot analysis; format: functional, cell-based
L02 = assay: Cytotoxicity agains human HL7702 cells assessed as reduction in cell viability after 72 hrs by SRB assay; format: cell-based; settings: L02, 72 h
MIA PaCa-2 = assay: Antiproliferative activity against human MIAPaCa2 cells assessed as reduction in cell viability after 72 hrs by SRB assay; format: functional, cell-based; settings: MIA PaCa-2, 72 h
[7] = Drug uptake in human A549 cells assessed as maximum emission peaks at 430 nm at 5 uM by fluorescence emission spectral analysis; format: ADME, cell-based; settings: a549, 5 µM
Mus musculus [8] = assay: Down regulation of topoisomerase 1 expression in mouse xenografted with human Capan1 cells at 36 mg/kg, iv for every 2 days measured at 2 hrs post last dose by Western blot analysis; format: functional, organism-based
[9] = Drug uptake in human A549 cells assessed as blue shift in absorption spectrum at 5 uM by UV-visible absorption spectral analysis; format: ADME, cell-based; settings: a549, 5 µM
HCT-116 [10] = assay: Antiproliferative activity against human HCT116 cells assessed as reduction in cell viability after 72 hrs by SRB assay; format: functional, cell-based; settings: HCT-116, 72 h
[11] = Prodrug release in mouse plasma xenografted with human HCT116 cells assessed as increase in 7-ethyl-10-hydroxycamptothecin level at 15 mg/kg, iv administered as single dose and measured after 30 mins to 72 hrs by LC-MS/MS analysis; format: ADME, organism-based; settings: in vivo
Mus musculus [12] = assay: In vivo inhibition of HSP90 in mouse xenografted with human Capan1 cells assessed as increase in HSP70 protein expression at 36 mg/kg, iv for every 2 days measured at 2 hrs post last dose by Western blot analysis; format: functional, organism-based
HCT-116 [13] = assay: Downregulation of TOP1 expression in human HCT116 cells after 24 hrs by Western blot analysis; format: functional, cell-based
Mus musculus [14] = assay: In vivo inhibition of HSP90 in mouse xenografted with human Capan1 cells assessed as decrease in AKT protein expression at 36 mg/kg, iv for every 2 days measured at 2 hrs post last dose by Western blot analysis; format: functional, organism-based

Drug metabolism [2]: Metabolite_Notdetected | Drug uptake [3]: Not Active | IC50 (A549 [4]): 1560 nM | Drug metabolism [5]: Metabolite_Detected | IC50 (MIA PaCa-2): 1330 nM | Drug uptake [7]: Active | Drug uptake [9]: Active | IC50 (HCT-116 [10]): 498 nM | Drug metabolism [11]: Metabolite_Detected
SMILES: CCc1c2c(nc3ccc(OC(=O)N4CCC(N5CCCCC5)CC4)cc13)-c1cc3c(c(=O)n1C2)COC(=O)[C@]3(O)CC [IRINOTECAN]
inhibition (Mus musculus [1]): Active | IC50 (CAPAN-1): 1120 nM | TOP1 downregulation (A549 [6]): Active | IC50 (L02): 1300 nM | inhibition (Mus musculus [8]): Active | inhibition (Mus musculus [12]): inactive | inhibition (HCT-116 [13]): Active | inhibition (Mus musculus [14]): inactive

Reference: ChEMBL document CHEMBL4354883, “Design, Synthesis, and Biological Evaluation of HSP90 Inhibitor-SN38 Conjugates for Targeted Drug Accumulation” (J Med Chem, 2020)
